Data: patent publication US7288533B2, “Topical application for treating toenail fungus” (priority 2004, dated 2007)

Experiments:
[1] = tested for use as a possible sedative; cited from earlier work
[2] = tested on: Candida albicans; assay: Hard surface carrier disinfection test (AOAC 991.47), colony count; assay type: cell-based; conditions: for Colonies Of Candida Albicans Observed: carrier 15 min in culture; for Effect on the fungus: 25% loading, summary of Examples 1-15
Protocol: The compositions are evaluated according to an approved surface carrier disinfection test (Official Methods of Analysis of the Association of Official Analytical Chemists protocol 991.47: Hard surface carrier test method). Cultures of Candida albicans are grown for 24 hours at room temperature in trypsin soy broth to a density of approximately McFarland standard #10. Sterile glass cylinders (Belco Cat. #2090-[…]) serve as carriers. The carriers are coated with the test composition or the control composition and subsequently submerged in 5 ml of the stock culture and allowed to remain there for 15 minutes. The carriers are aseptically transferred to sterile, dry Whatman #1 filter paper, and excess droplets of the inoculation medium are removed. The carriers are dried at 37° C. for 40 minutes and then aseptically transferred to 5 ml of trypsin soy broth. They are then sonicated for 10 minutes in as water bath at 25° C. Tubes containing the sonicated carriers are vortexed, and a portion of the medium is placed onto trypsin soy agar plates, and incubated overnight at 37° C. Microbial growth is assessed by counting colonies.

Compound	Toxicity [1]	Colonies Of Candida Albicans Observed ([2]; 0.1 wt. % in mineral oil)	Colonies Of Candida Albicans Observed ([2]; 1.0 wt. % in mineral oil)	Colonies Of Candida Albicans Observed ([2]; 10 wt. % in mineral oil)	Effect on the fungus [2]	Colonies Of Candida Albicans Observed ([2]; 25 wt. % in mineral oil)	Colonies Of Candida Albicans Observed ([2]; 50 wt. % in mineral oil)	Colonies Of Candida Albicans Observed ([2]; 75 wt. % in mineral oil)
CCCC1(C)COB(c2ccc(C)cc2)OC1 [I.S. 813, 2-(p-tolyl)-(5-methyl, 5-propyl)-1,3,2,-dioxiborinane]	very low							
CC1CCOB(OCCC(C)OB2OCCC(C)O2)O1 (stereo not drawn) [compound S1, 2,2′-(1-methyltrimethylenedioxy) bis-(4-methyl-1,3,2-dioxaborinane)]		8	2	0	completely destroys the fungus	0	0	0
CC1CC(C)(C)OB(OB2OC(C)CC(C)(C)O2)O1 (stereo not drawn) [compound S2, 2,2′-oxybis (4,4,6-trimethyl-1,3,2-dioxaborinane)]		11	1	0	completely destroys the fungus	0	0	0
